Assay results reported in PMC12406203 (Journal of Medicinal Chemistry, 2025).

How the values were obtained:
[1] = test system: ABL1(E255K)-phosphorylated
[2] = test system: JAK3(JH1domain-catalytic)
Log D determination = assay type: physicochemical; details: pH 7.4, n-octanol/PBS
Procedure: Calibration curves for phosphate-buffered saline (PBS) (pH = 7.4) and octanol were prepared (0.05–5 μM). The buffer and n-octanol phases were shaken, using phosphate buffer (pH = 7.4). The phase ratios of buffer to n-octanol were 1:1 (0.8 mL octanol:0.8 mL PBS) and 1:3 (0.4 mL octanol:1.2 mL PBS). Octanol was then pipetted into a HPLC vial, followed by the addition of 1.6 μL of a 10 mM stock DMSO solution and the buffer. The vial was mixed with a vortex mixer and shaken for 3 h in the dark at 23 °C. Subsequently, the aqueous and organic phases were sampled with a syringe into a new HPLC vial, and the samples were analyzed using UHPLC/DAD.

[3] = test system: scopolamine-induced cognitive deficits in mice; assay: Passive avoidance task, scopolamine-induced amnesia; assay type: in vivo; details: for efficacy in PA task: 5 mg/kg i.p., scopolamine model; for step-through latency, retention trial (PA task): 10 mg/kg i.p., vs scopolamine-treated control mice
Description: In the scopolamine model, the PA and NOR tasks were used for dose selection for further testing.
The mice had unlimited access to food and water prior to the experiment. Specified conditions for the maintenance of mice were ensured throughout the experiment, including tree bedding (Transwior, Poland) and cage enrichment (tunnels, nesting material, wooden igloos, etc.). For behavioral tests, the mice were selected randomly; each group consisted of 7–10 mice.
Scopolamine hydrobromide (Sigma-Aldrich, Poland) at the dose of 1 mg/kg was used to induce learning and memory deficits. For the in vivo tests, scopolamine was prepared in distilled water (Polfa Kutno, Poland) and was administered subcutaneously (s.c.) 30 min before behavioral tests during the acquisition (training) trial of PA and NOR tasks. […] They were administered intraperitoneally (i.p.) 60 min before the acquisition trial of the PA, NOR, and MWM tasks.
The PA apparatus (Panlab Harvard Apparatus, Spain) consists of a large white-colored illuminated compartment (26 cm × 26 cm × 34 cm) and a small black-colored compartment (13 cm × 7.5 cm × 7.5 cm), which are separated from each other by a guillotine gate (5 cm × 5 cm). The PA task is divided into two trials (i.e., the acquisition trial and the retention trial), each conducted 24 h apart. On the first day, during the acquisition trial (a conditioning phase), the test compounds (94 and 95, neflamapimod and vehicle) were injected. Also, before the acquisition trial, scopolamine or LPS was administered at selected time points. Then, each mouse was placed into the white compartment, and a 30 s habituation period began (guillotine gate is closed). After that, the guillotine gate was opened, and the mice were tested during the 180 s testing period. As soon as the mouse entered the black compartment of the PA device, the guillotine gate was closed and an electrical shock (intensity: 0.2 mA, duration: 2 s) was automatically applied through the grid floor. For each mouse, the latency between the opening of the guillotine gate and the mouse’s entering the black compartment was measured. On the next day, during the retention (drug-off) trial, the mice were placed again into the white compartment for a 30 s habituation period, and the latency to enter the black compartment was measured for each mouse.

[4] = for Pe ± SEM: BBB-PAMPA, pH 7.4, n = 2 novel compounds, n = 3 reference drugs; for CNS (+/–): predicted BBB permeation from Pe
[5] = test system: mice (motor coordination); assay: Rotarod test; details: 10 mg/kg i.p., mice
Procedure: For behavioral tests, the mice were selected randomly; each group consisted of 7–10 mice.
In the rotarod, locomotor activity, and MWM tests, only one dose effective in the scopolamine model of amnesia was evaluated.
Three days before the rotarod test, the mice were trained on the rotarod apparatus (Rotarod apparatus, May Commat RR0711, Turkey; rod diameter: 2 cm) that was rotated at a fixed speed of 18 rpm. In each training session, the mice were placed on the rotating rod for 3 min with an unlimited number of trials. The proper experiment was performed 24 h after the last training trial. […] Motor impairments in mice were defined as the inability to remain on the rotarod apparatus for 1 min. The results are expressed as the mean time spent on the rotarod.

CC(C)Cn1ncc2cc(Cc3ccc(F)cc3F)c(C(=O)NCCN(C)C)cc21 [Compound 94, 5-(2,4-Difluorobenzyl)-N-(2-(dimethylamino)ethyl)-1-isobutyl-1H-indazole-6-carboxamide]
RA @ 1000nM [1]: 96% | RA @ 10000nM [1]: 55% | RA @ 1000nM (ABL1-nonphosphorylated): 85% | RA @ 10000nM (ABL1-nonphosphorylated): 97% | RA @ 1000nM (ACVR1B): 100% | RA @ 10000nM (ACVR1B): 100% | RA @ 1000nM (CDK9): 100% | RA @ 10000nM (CDK9): 100% | RA @ 1000nM (CSF1R): 100% | RA @ 10000nM (CSF1R): 86% | RA @ 1000nM (CSNK1D): 86% | RA @ 10000nM (CSNK1D): 79% | RA @ 1000nM (CSNK1G2): 96% | RA @ 10000nM (CSNK1G2): 93% | RA @ 1000nM (DCAMKL1): 100% | RA @ 10000nM (DCAMKL1): 100% | RA @ 1000nM (EGFR): 98% | RA @ 10000nM (EGFR): 69% | RA @ 1000nM (ERBB2): 74% | RA @ 10000nM (ERBB2): 81% | RA @ 1000nM (IGF1R): 94% | RA @ 10000nM (IGF1R): 84% | RA @ 1000nM (IKKα): 82% | RA @ 10000nM (IKKα): 87% | RA @ 1000nM [2]: 100% | RA @ 10000nM [2]: 100% | RA @ 1000nM (JNK1): 77% | RA @ 10000nM (JNK1): 41% | RA @ 1000nM (JNK2): 52% | RA @ 10000nM (JNK2): 8.3% | RA @ 1000nM (KIT): 100% | RA @ 10000nM (KIT): 100% | RA @ 1000nM (KIT(D816V)): 94% | RA @ 10000nM (KIT(D816V)): 100% | RA @ 1000nM (LKB1): 100% | RA @ 10000nM (LKB1): 96% | RA @ 1000nM (MEK1): 98% | RA @ 10000nM (MEK1): 74% | RA @ 1000nM (MEK2): 86% | RA @ 10000nM (MEK2): 80% | RA @ 1000nM (MKNK2): 76% | RA @ 10000nM (MKNK2): 80% | RA @ 1000nM (NLK): 100% | RA @ 10000nM (NLK): 98% | RA @ 1000nM (PAK4): 97% | RA @ 10000nM (PAK4): 96% | RA @ 1000nM (PCTK1): 96% | RA @ 10000nM (PCTK1): 92% | RA @ 1000nM (PIK3CA): 77% | RA @ 10000nM (PIK3CA): 95% | RA @ 1000nM (PIM3): 100% | RA @ 10000nM (PIM3): 100% | RA @ 1000nM (PKACα): 100% | RA @ 10000nM (PKACα): 96% | RA @ 1000nM (PLK1): 100% | RA @ 10000nM (PLK1): 100% | RA @ 1000nM (PLK3): 100% | RA @ 10000nM (PLK3): 97% | RA @ 1000nM (PLK4): 100% | RA @ 10000nM (PLK4): 100% | RA @ 1000nM (SRC): 100% | RA @ 10000nM (SRC): 94% | RA @ 1000nM (SRPK3): 77% | RA @ 10000nM (SRPK3): 100% | RA @ 1000nM (TGFBR1): 100% | RA @ 10000nM (TGFBR1): 100% | RA @ 1000nM (TSSK1B): 77% | RA @ 10000nM (TSSK1B): 89% | RA @ 1000nM (ULK2): 71% | RA @ 10000nM (ULK2): 88% | RA @ 1000nM (ZAP70): 100% | RA @ 10000nM (ZAP70): 79% | measured log D at pH 7.4 (Log D determination): 2.13 | efficacy in PA task [3]: not statistically significantly effective | step-through latency, retention trial (PA task) [3]: statistically significant prolonged step-through latency | Pe ± SEM [4]: 10.4 ± 0.01 ×10–6 cm/s | CNS (+/–) [4]: CNS+ (CNS+ indicates high predicted BBB permeation [Pe (×10–6 cm/s) > 4.0]) | motor adverse effects (rotarod test) [5]: no motor adverse effects

CN(C)CCNC(=O)c1cc2c(cnn2CC2CCCCC2)cc1Cc1ccc(F)cc1F [Compound 95, 1-(Cyclohexylmethyl)-5-(2,4-difluorobenzyl)-N-(2-(dimethylamino)ethyl)-1H-indazole-6-carboxamide]
RA @ 1000nM [1]: 96% | RA @ 10000nM [1]: 93% | RA @ 1000nM (ABL1-nonphosphorylated): 90% | RA @ 10000nM (ABL1-nonphosphorylated): 90% | RA @ 1000nM (ACVR1B): 100% | RA @ 10000nM (ACVR1B): 100% | RA @ 1000nM (CDK9): 100% | RA @ 10000nM (CDK9): 93% | RA @ 1000nM (CSF1R): 100% | RA @ 10000nM (CSF1R): 79% | RA @ 1000nM (CSNK1D): 93% | RA @ 10000nM (CSNK1D): 84% | RA @ 1000nM (CSNK1G2): 100% | RA @ 10000nM (CSNK1G2): 98% | RA @ 1000nM (DCAMKL1): 100% | RA @ 10000nM (DCAMKL1): 100% | RA @ 1000nM (EGFR): 100% | RA @ 10000nM (EGFR): 100% | RA @ 1000nM (ERBB2): 84% | RA @ 10000nM (ERBB2): 78% | RA @ 1000nM (IGF1R): 100% | RA @ 10000nM (IGF1R): 93% | RA @ 1000nM (IKKα): 92% | RA @ 10000nM (IKKα): 75% | RA @ 1000nM [2]: 100% | RA @ 10000nM [2]: 100% | RA @ 1000nM (JNK1): 100% | RA @ 10000nM (JNK1): 27% | RA @ 1000nM (JNK2): 44% | RA @ 10000nM (JNK2): 3.8% | RA @ 1000nM (KIT): 100% | RA @ 10000nM (KIT): 100% | RA @ 1000nM (KIT(D816V)): 96% | RA @ 10000nM (KIT(D816V)): 94% | RA @ 1000nM (LKB1): 100% | RA @ 10000nM (LKB1): 86% | RA @ 1000nM (MEK1): 98% | RA @ 10000nM (MEK1): 100% | RA @ 1000nM (MEK2): 95% | RA @ 10000nM (MEK2): 100% | RA @ 1000nM (MKNK2): 81% | RA @ 10000nM (MKNK2): 67% | RA @ 1000nM (NLK): 100% | RA @ 10000nM (NLK): 100% | RA @ 1000nM (PAK4): 100% | RA @ 10000nM (PAK4): 88% | RA @ 1000nM (PCTK1): 87% | RA @ 10000nM (PCTK1): 79% | RA @ 1000nM (PIK3CA): 100% | RA @ 10000nM (PIK3CA): 100% | RA @ 1000nM (PIM3): 100% | RA @ 10000nM (PIM3): 100% | RA @ 1000nM (PKACα): 100% | RA @ 10000nM (PKACα): 94% | RA @ 1000nM (PLK1): 100% | RA @ 10000nM (PLK1): 100% | RA @ 1000nM (PLK3): 88% | RA @ 10000nM (PLK3): 100% | RA @ 1000nM (PLK4): 100% | RA @ 10000nM (PLK4): 100% | RA @ 1000nM (SRC): 100% | RA @ 10000nM (SRC): 93% | RA @ 1000nM (SRPK3): 92% | RA @ 10000nM (SRPK3): 99% | RA @ 1000nM (TGFBR1): 100% | RA @ 10000nM (TGFBR1): 100% | RA @ 1000nM (TSSK1B): 100% | RA @ 10000nM (TSSK1B): 79% | RA @ 1000nM (ULK2): 77% | RA @ 10000nM (ULK2): 75% | RA @ 1000nM (ZAP70): 100% | RA @ 10000nM (ZAP70): 100% | RA at 100 µM (hAChE): 53.4 ± 0.8% | measured log D at pH 7.4 (Log D determination): 2.77 | efficacy in PA task [3]: not statistically significantly effective | step-through latency, retention trial (PA task) [3]: statistically significant prolonged step-through latency | Pe ± SEM [4]: 13.2 ± 1.1 ×10–6 cm/s | CNS (+/–) [4]: CNS+ (CNS+ indicates high predicted BBB permeation [Pe (×10–6 cm/s) > 4.0]) | motor adverse effects (rotarod test) [5]: no motor adverse effects
